Test results: patent US5962415A, “Compositions comprising a peptide inhibitor of nuclear protein translocation and an immunosuppressant and methods of use thereof” (Bristol-Myers Squibb Co., priority 1998, dated 1999)
Where a SMILES comes first, the peptide text is derived from it. Where no end group is shown, it is not given here. [ ]: non-standard residue; d: D form.

Assays:
HIVLAI in Jurkat cells = test: Nuclear translocation of HIV genome in Jurkat cells infected with HIVLAI (gag and 2-LTR circle PCR); format: cell-based, HIV-1; details: SV40MEM 0.1 and 1.0 μM, NF-κBMEM 10 μM, 24 hr
Procedure: (§1) HIV-1 M1 p24 levels were assayed using the procedures described in Smithgall et al (1995) AIDS Res. and Human Retrovirus 11:885. Proviral DNA content (gag) was measured using polymerase chain reaction analysis as described in Smithgall et al. (1995), supra.
2-LTR circles, a strictly nuclear form of HIV-1 DNA the expression of which indicates nuclear localization of the viral genome, was measured by as described in Bukrinsky et al (1991) Science 254:423.
Jurkat cells were incubated with the SV40MEM polypeptide for 3 hr with HIVLAI for 1-2 hr. The virus was washed out and the cultures supplemented with the appropriate inhibitor (SV40MEM, 0.1,μM and 1.0 μM; NF-κBMEM, 10 μM). After 24 hr, the cells were collected, lysed and evaluated for HIV-1 DNA by polymerase chain reaction analysis of gag sequences (see FIG. 8A) and 2-LTR circles (see FIG. 8B).

[1] = test system: THP-1 human monocytic cells; test: LPS-stimulated cytokine (TNF-α, IL-8) production in THP-1 cells; format: cell-based; details: 5 μM, 5 hr LPS stimulation, FIG. 4A
Procedure: Amounts of TNF-α, IL-6, IL-8 and IL-10 were determined using the ELISA kits obtained from Genzyme following the manufacturer's instructions.
THP-1 control cells were harvested, washed and set up in RPMI 1640, 10% fetal calf serum, at a concentration of 2.56×10^6 cells/ml. Phosphate buffered saline ("PBS") or one of the two respective polypeptides SV40MEM or SV40 (a peptide having only the SV40 large T antigen NLS sequence) were added to the cells at a concentration of 10 μM or 20 μM. The cells were then plated into a 96-well plate with 0.1 ml/well. The plate was then incubated for 2 hr at 37° C. in a 5% CO2 atmosphere. Following the initial incubation, media or a titration of LPS was added to each of the wells in a volume of 0.1 ml. Thus, the final concentrations of polypeptides were 5 μM or 10 μM. Following 5 hr of LPS stimulation, supernatants were taken and TNF-α and IL-8 levels were determined by ELISA. In addition, cells treated with PBS or polypeptides, but not incubated with LPS, were removed at the time of supernatant removal to determine the viability of the cells following 7 hr of contact with the polypeptides.
This experiment was conducted to compare the inhibitory effect of the SV40MEM polypeptide and other inhibitory polypeptides on LPS induction of cytokine production. THP-1 control cells (ATCC 9/95 stock) were harvested, washed and set up in RPMI 1640, 10% fetal calf serum as described in Example 2. The cells were incubated for 2 hr with PBS or (1) the FGF signal sequence, (2) a polypeptide having the FGF signal sequence and the NLS of NF-κB p50 on the carboxy terminus of the signal sequence, (3) the SV40MEM polypeptide comprised of L-amino acids, or (4) the SV40MEM polypeptide comprised of D-amino acids at a final concentration of 5 μM. The cells were then plated into a 96-well plate with 0.1 ml/well. The plate was then incubated for 2 hr at 37° C. in a 5% CO2 atmosphere. Following the initial incubation, media or a titration of LPS was added to each of the wells in a volume of 0.01 ml/well. Following 5 hr of LPS stimulation, supernatants were taken and TNF-α levels were determined by ELISA.

Human RAJI B-cells = test: Proliferation of RAJI human B-cell leukemia cells; format: cell-based; details: 5 μM (lowest concentration), 48 hr, FIG. 10
Procedure: Human RAJI B-cells were treated with 0, 5, 10 or 25 μM SV40MEM prepared from D-amino acids. On day 0, the cell concentrations of the control and treated cells were the same. After 48 hr of exposure to the peptide, the treated cells were again counted and compared to control cells.

[2] = test system: 70Z/3 murine leukemia pre-B cells; test: LPS-stimulated surface antigen expression (κ Ig light chain, IL-2 receptor, CD45) in 70Z/3 cells; format: cell-based; details: for potency and efficacy of L- versus D-amino acid form, LPS-stimulated κ Ig expression: FIG. 3
Procedure: Expression of κ Ig, CD45, CD40, and the interleukin-2 receptor was assayed using standard enzyme-linked immunosorbent assays ("ELISAs") (see, Coligan et al. (eds.) (1991) Current Protocols in Immunology, Wiley & Sons, p. 2.10 or by FACS staining to measure cell-surface markers as described in Raff (1970) Immunology 19:637). Antibodies form cell surface markers were obtained from Pharmingen Co.
The effect of the SV40MEM polypeptide was compared with two additional polypeptides, […] (SEQ ID NO:2) (the "HIV-1MEM" polypeptide), which is composed of the membrane translocation domain of FGF flanked by the NLS from the HIV-1 matrix protein and […] (SEQ ID NO:3) (the "C-MYCMEM" polypeptide), which contains the NLS from the human c-myc oncoprotein (Chelsky et al. (1989), supra, and Dang et al. (1988), supra) using murine 70Z/3 pre-B cells.
Murine 70Z/3 cells (ATCC TlD-158) are a model cell line for analyzing the effects of compounds on B-cell differentiation. In response to S. typhosa LPS (Difco) or γ-interferon, these cells differentiate from surface κ immunoglobulin negative to κ Ig positive.
[…] of: (1) a peptide containing only the FGF signal sequence AAVALLPAVLLALLAP (SEQ ID NO:4) (the "MEM" peptide); (2) a polypeptide having the FGF signal sequence and the NLS of NF-κB p50 on the carboxy terminus of the signal sequence, namely, the NF-κBMEM polypeptide; (3) the SV40MEM polypeptide comprised of L-amino acids; or (4) the SV40MEM polypeptide comprised of D-amino acids. The cells were then incubated with LPS as described in Example 2 and assayed for expression of κ light chain expression.

Murine 70Z/3 B-cells = test: Proliferation of 70Z/3 murine B-cell leukemia cells; format: cell-based; details: 0.2 μM (lowest concentration), 48 hr, FIG. 9
Procedure: Murine 70Z/3 B-cells were treated with 0, 0.2, 0.5, 1, or 2 μM […] prepared from D-amino acids. On day 0, the cell concentrations of the control and treated cells were the same. After 48 hr of exposure to the peptide, the treated cells were again counted and compared to control cells.

CD14 = test: LPS binding to CD14 (plate assay with soluble CD14 Ig); details: E. coli AO16 LPS, 2 hours at 4° C., FIG. 14
Procedure: 96-well plates were coated with goat-anti human Ig, soluble CD-1 4 Ig was added, and the plates were incubated overnight at 4° C. The BMS polypeptide, the C-MYCMEM polypeptide, an SV40 NLS polypeptide containing a single SV40 large T-antigen NLS, a c-myc NLS without a translocation sequence (AKRVKL (SEQ ID NO:6)), a control non-NLS polypeptide, 377G, or PBS, were added to the plates and the plates were incubated for 5 min. E. coli AO16 LPS was then added to the plates and the plates were incubated for 2 hours at 4° C. The plates were washed and LPS was detected using 0.5 μg/ml mouse anti-E. coli LPS, followed by goat anti-mouse horseradish peroxidase.

[3] = test system: HIV-M1 virus in H9 human lymphoma T-cells; test: Infection of H9 T-cells with HIV-M1 virus (PCR of HIV-1 DNA); format: cell-based; details: 2 μM, 4 hr preincubation, day 3, FIG. 7
Procedure: as §1
(§2) H9 and Jurkat cells were incubated with the HIV-1MEM polypeptide (2,μM) or the control MEM peptide for 4 hr prior to addition of HIV-M1 virus. Cells were harvested on day 3 following injection and the level of HIV-1 DNA evaluated by polymerase chain reaction.

HIV-1 primary isolate M1 = test: Infection of anti-CD3 activated PBMCs with HIV-1 primary isolate M1; format: cell-based; details: seven days, compared to untreated but activated cultures
Procedure: as §1
PBMCs were obtained washed, cultured, and infected with HIV-1 as described in Dubrovsky et al. (1995) Mol. Med. 1:217-230). PBMCs from a seronegative donor were collected and depleted of CD8^+ T cells by negative selection. The cells were activated with an anti-CD3 monoclonal antibody prepared according to the method described in Wee et al. (1993) J. Exp. Med. 177:219 and incubated for 3 hr with the HIV-1MEM polypeptide. The cells were then incubated with M1 virus isolated from PBMC collected from HIV-infected donors in the presence of inhibitors for 2 hr. The virus was washed out, and the cultures supplemented with the appropriate inhibitor and allowed to incubate for seven days. Virus production was determined by measuring the p24 levels in the culture supernatant (FIG. 6B) and contrasted with the effect of the polypeptide on cell proliferation (FIG. 6A), which virus load was determined by polymerase chain reaction analysis of proviral DNA content (gag) (FIG. 6C). The MEM peptide represents the FGF membrane translocating portion of the HIV-1MEM polypeptide.

[4] = test system: HIV-M1 virus in Jurkat human leukemia T-cells; test: Infection of Jurkat T-cells with HIV-M1 virus (PCR of HIV-1 DNA); format: cell-based; details: 2 μM, 4 hr preincubation, day 3, FIG. 7
Procedure: as §1, §2

## CSCC[C@H](NC(=O)[C@H](CC(C)C)NC(=O)[C@H](CCCCN)NC(=O)[C@H](CCC(N)=O)NC(=O)[C@H](CCCNC(=N)N)NC(=O)[C@H](CCCCN)NC(=O)[C@H](CCCNC(=N)N)NC(=O)[C@H](CCC(N)=O)NC(=O)[C@@H](NC(=O)[C@@H]1CCCN1C(=O)[C@H](C)NC(=O)[C@H](CC(C)C)NC(=O)[C@H](CC(C)C)NC(=O)[C@H](C)NC(=O)[C@H](CC(C)C)NC(=O)[C@H](CC(C)C)NC(=O)[C@@H](NC(=O)[C@H](C)NC(=O)[C@@H]1CCCN1C(=O)[C@H](CC(C)C)NC(=O)[C@H](CC(C)C)NC(=O)[C@H](C)NC(=O)[C@@H](NC(=O)[C@H](C)NC(=O)[C@H](C)N)C(C)C)C(C)C)C(C)C)C(=O)N1CCC[C@H]1C(N)=O [NF-κBMEM]
HIVLAI in Jurkat cells; FIG. 8A
  viral internalization / virus entry (gag sequences): no effect
HIVLAI in Jurkat cells; FIG. 8B
  translocation of the viral genome into the nucleus (2-LTR circles): no effect
[1]
  LPS-induced TNF-α expression: did not significantly inhibit

## CC(C)C[C@@H](NC(=O)[C@@H](C)NC(=O)[C@@H](CC(C)C)NC(=O)[C@@H](CC(C)C)NC(=O)[C@H](NC(=O)[C@@H](C)NC(=O)[C@H]1CCCN1C(=O)[C@@H](CC(C)C)NC(=O)[C@@H](CC(C)C)NC(=O)[C@@H](C)NC(=O)[C@H](NC(=O)[C@@H](C)NC(=O)[C@@H](C)NC(=O)[C@H](NC(=O)[C@@H](CCCCN)NC(=O)[C@@H](CCCNC(=N)N)NC(=O)[C@@H](CCCCN)NC(=O)[C@@H](CCCCN)NC(=O)[C@@H](CCCCN)NC(=O)[C@H]1CCCN1)C(C)C)C(C)C)C(C)C)C(=O)N[C@H](CC(C)C)C(=O)N[C@H](C)C(=O)N1CCC[C@@H]1C(=O)N[C@H](CCCCN)C(=O)N[C@H](CCCCN)C(=O)N[C@H](CCCCN)C(=O)N[C@H](CCCNC(=N)N)C(=O)N[C@H](CCCCN)C(=O)N[C@@H](C(=O)N[C@H](CS)C(N)=O)C(C)C [SV40MEM (D-amino acid form)] (H-[dP][dK][dK][dK][dR][dK][dV][dA][dA][dV][dA][dL][dL][dP][dA][dV][dL][dL][dA][dL][dL][dA][dP][dK][dK][dK][dR][dK][dV][dC]-NH2; N-terminus and C-terminus assumed)
Human RAJI B-cells
  proliferation (cell count versus control): inhibited
[2]
  potency and efficacy of L- versus D-amino acid form, LPS-stimulated κ Ig expression: equally potent and efficacious
[2]; dose-response data, FIG. 1B
  efficacy at inhibiting κ Ig light chain production (comparison of three polypeptides): approximately equally efficacious
[1]
  LPS-induced TNF-α expression: significantly inhibited
Murine 70Z/3 B-cells
  proliferation (cell count versus control): inhibited

## AKRVKL [c-myc NLS, reference compound]
CD14
  binding of LPS to CD14: did not block binding

## KKKYKAAVALLPAVLLALLAKKKYKC [HIV-1MEM, membrane translocation domain of FGF flanked by the NLS from the HIV-1 matrix protein]
[3]
  infection (level of HIV-1 DNA by PCR): inhibited infection
[2]; dose-response data, FIG. 1B
  efficacy at inhibiting κ Ig light chain production (comparison of three polypeptides): approximately equally efficacious
  potency at inhibiting κ Ig light chain production compared with SV40MEM: not as potent
HIV-1 primary isolate M1; FIG. 6B
  virus production (p24 levels in culture supernatant): significantly reduced
HIV-1 primary isolate M1; FIG. 6C
  virus load (PCR of proviral DNA content, gag): significantly reduced
[4]
  infection (level of HIV-1 DNA by PCR): inhibited infection

## PKKKRKVAAVALLPAVLLALLAPKKKRKVC-NH2 (C-terminus assumed) [SV40MEM (L-amino acid form)]
[2]
  potency and efficacy of L- versus D-amino acid form, LPS-stimulated κ Ig expression: equally potent and efficacious
[1]
  LPS-induced TNF-α expression: significantly inhibited
